Literature values in patent US11542295B2, “Use of 20-hydroxyecdysone and the derivatives thereof in the treatment of myopathies” (BIOPHYTIS, priority 2017, dated 2023).

Tests used:
[1] = system: muscles of rats; settings: rats in vivo; cited from earlier work
[2] = system: C2C12 mouse myotubes; settings: C2C12 mouse myotubes in vitro; cited from earlier work
[3] = system: young athletes; settings: young athletes (Simakin et al., 1988); cited from earlier work

CC(C)(O)CC[C@@H](O)[C@](C)(O)[C@H]1CC[C@@]2(O)C3=CC(=O)[C@@H]4C[C@@H](O)[C@@H](O)C[C@]4(C)[C@H]3CC[C@]12C [20-hydroxyecdysone]
effects on protein syntheses in muscles [1]: stimulant effects | effects on protein syntheses [2]: stimulant effects | muscle mass [3]: increases
